For assay [1], the target named is T1, ERβ (Homo sapiens, UniProt Q92731). The experiment in a line: TNF-RE tkLuc repression in U2OS cells, ERβ. The format is cell-based. The arrangement: expressed in transfected cells.
Assay [2] has as its target T1, ERβ. The settings on record: in the presence of ERβ.
The test system of assay [3] is TNF-RE tkLuc. The experiment in a line: Antiestrogen effect on TNF-RE tkLuc (Example 2). The format is cell-based, human. The settings on record: for effect on the repression induced by E2: TNF-RE tkLuc; for activation of TNF-RE tkLuc: antiestrogens, in contrast to E2.
The test system of assay [4] is postmenopausal women who have osteoporosis. The settings on record: median follow-up of 40 months, cited from earlier work.
Assay [5] concerns the target T1, ERβ. Put plainly: ERE-tk-Luc luciferase assay in U2OS cells, ERβ. Format: cell-based. The arrangement: expressed in transfected cells; host or cells: U2OS (human osteosarcoma), electroporated. To be noted: competition with herb 6, U2OS cells, FIG. 6.
Assay [6] deals with women with estrogen receptor-positive breast cancer. The settings on record: five years of therapy; cited from earlier work.
Assay [7] relates to women considered to be at high risk for breast cancer. The settings on record: cited from earlier work.

Molecules are shown by their SMILES.

T1 sequence (Q92731 whole entry): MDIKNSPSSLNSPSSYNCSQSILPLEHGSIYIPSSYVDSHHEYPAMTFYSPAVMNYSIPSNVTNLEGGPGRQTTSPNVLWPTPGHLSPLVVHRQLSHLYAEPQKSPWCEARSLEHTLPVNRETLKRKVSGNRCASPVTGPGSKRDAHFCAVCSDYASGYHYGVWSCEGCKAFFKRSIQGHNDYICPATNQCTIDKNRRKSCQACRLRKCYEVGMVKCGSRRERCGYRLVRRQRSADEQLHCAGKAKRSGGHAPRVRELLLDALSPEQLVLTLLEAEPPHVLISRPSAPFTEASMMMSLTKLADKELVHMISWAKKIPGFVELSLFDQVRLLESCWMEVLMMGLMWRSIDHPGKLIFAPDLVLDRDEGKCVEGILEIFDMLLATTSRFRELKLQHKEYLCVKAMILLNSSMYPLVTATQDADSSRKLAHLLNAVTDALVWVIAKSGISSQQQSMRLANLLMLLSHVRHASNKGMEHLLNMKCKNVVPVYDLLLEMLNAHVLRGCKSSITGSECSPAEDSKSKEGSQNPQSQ

On to `C[C@]12CC[C@@H]3c4ccc(O)cc4CC[C@H]3[C@@H]1CC[C@@H]2O` [E2, estradiol], for which the “repression of TNF-α activation of TNF-RE” value in assay [1] was 100%. Besides, the “repression of TNF-α activation of TNF-RE tkLuc” value in assay [2] is recorded as 60-80%.
As to `C[C@]12CC[C@@H]3c4ccc(O)cc4C[C@@H](CCCCCCCCC[S+]([O-])CCCC(F)(F)C(F)(F)F)[C@H]3[C@@H]1CC[C@@H]2O` (some centres unmarked) [ICI 182, 780], in assay [3], the “effect on the repression induced by E2” value is recorded as “abolished the repression induced by E2” and the “activation of TNF-RE tkLuc” value was found to be 2 fold.
For `O=C(c1ccc(OCCN2CCCCC2)cc1)c1c(-c2ccc(O)cc2)sc2cc(O)ccc12` [raloxifene], the “cases of breast cancer in the treatment group” value in assay [4] (among 5129 women) is recorded as 13 cases. Also, the “RR of breast cancer versus placebo” value in assay [4] was 0.24. In addition, in assay [3], the “effect on the repression induced by E2” value is “abolished the repression induced by E2” and the “activation of TNF-RE tkLuc” value is reported as 2 fold. Besides, the “effect on herb 6 stimulation of the ERE with ERβ” value in assay [5] is given as “inhibited”.
For the molecule `CC/C(=C(\c1ccccc1)c1ccc(OCCN(C)C)cc1)c1ccccc1` [tamoxifen], in assay [3], the “effect on the repression induced by E2” value is “abolished the repression induced by E2” and the “activation of TNF-RE tkLuc” value turned out to be 2 fold. For the same molecule, in assay [6], the “reduction of mortality from breast cancer” value is reported as 22% and the “reduction of the risk of recurrences” value is on record as 42%. In assay [7], the “reduction of the risk of primary invasive breast cancer” value is given as 49%.

The values above are taken from US9132161B2.
